Consider six molecules from patent US9260485B2 (priority 2009, dated 2016).

Where two headings read alike, the source gives them in different places. Square brackets hold non-standard residues; d marks the D form. Peptide text beside a SMILES is read from it. ξ: configuration not given here. ξLac(3-iPr) = CC(C)CC(O)C(=O)O

The subject of one series is Aspergillus oryzae. Kind of series: Anti-fungal activity, paper disc on mycelia on PDA. Particulars: 1 mM; 25° C., 48 hr. In kind it is cell-based. On the procedure: (§1) Inhibitory activity was performed against four fungus strains (Mucor rouxii, Penicillium citrinum, Fusarium oxysporum, and Aspergillus oryzae).
(§2) Drops of 1 and 10 mM solutions of compounds of Chemical Formulas 1 and 2 in methanol were loaded onto sterile paper discs (8 mm diameter) and the methanol solvent was evaporated under a hood. The paper discs were placed on fungus mycelia grown on potato dextrose agar. After incubation at 25° C. for 48 hr, clear zones around the discs were observed and their diameters were measured. A filter treated with pure methanol was used as a negative control.

The test system of another series is Fusarium oxysporum. Kind of series: Anti-fungal activity, paper disc on mycelia on PDA. The series is classed as cell-based. Here is the method: as §1, §2
The subject of another series is Mucor rouxii. Briefly: Anti-fungal activity, paper disc on mycelia on PDA. In kind it is cell-based. On the procedure: as §1, §2
The next series deals with Penicillium citrinum. Kind of series: Anti-fungal activity, paper disc on mycelia on PDA. The series is classed as cell-based. The conditions noted are these: 1 mM; 25° C., 48 hr. Here is the method:
as §1, §2

Series [1] has as its system MES-SA/DX5 multi-drug resistant subline. Briefly: In vitro cytotoxicity, SRB method. The series is classed as cell-based, Human. On the procedure: (§3) Known cyclic hexadepsipeptides (beauvericin, enniatin H, I, and MK1688) and the compounds of Chemical Formulas 1 and 2 were evaluated for in vitro cytotoxicity against various non-multidrug-resistant human cancer cell lines and multidrug-resistant cancer cell lines using the SRB method.
(§4) Human non-small-cell lung cancer cell line (A549) ovarian cancer cell line (SK-OV-3), skin cancer cell line (SK-MEL-2), and uterine sarcoma cell line MES-SA and its multi-drug resistant subline (MES-SA/DX5) were purchased from the American Type Culture Collection (USA). Colorectal carcinoma cancer cell line (HCT-15) was provided by the National Cancer Institute (NCI). HCT15/CL02 cell lines were established from HCT15 cells by continuous and stepwise exposure of the cells to doxorubicin in the Korea Research Institute of Chemical Technology (Korea).
(The SRB assay estimates cell density from bound dye.)

The test system of series [2] is HCT15 colorectal carcinoma cancer cell line. Briefly: In vitro cytotoxicity, SRB method. In kind it is cell-based, Human. On the procedure:
as §3, §4

Series [3] has as its system SK-OV-3 ovarian cancer cell line. Kind of series: In vitro cytotoxicity, SRB method. In kind it is cell-based, Human. On the procedure: as §3, §4
Series [4] has as its system HCT15/CL02 cell line (doxorubicin-selected from HCT15). Briefly: In vitro cytotoxicity, SRB method. In kind it is cell-based, Human. Here is the method: as §3, §4
Series [5] has as its system SK-MEL-2 skin cancer cell line. Kind of series: In vitro cytotoxicity, SRB method. The series is classed as cell-based, Human. On the procedure: as §3, §4
Series [6] concerns MES-SA uterine sarcoma cell line. Briefly: In vitro cytotoxicity, SRB method. In kind it is cell-based, Human. The conditions noted are these: read-out: EC50 (concentration inhibiting cell growth in vitro by 50%). Here is the method: as §3, §4
The test system of series [7] is A549 non-small-cell lung cancer cell line. Briefly: In vitro cytotoxicity, SRB method. The series is classed as cell-based, Human. Here is the method:
as §3, §4

Series [8] deals with MDR cell lines (MES-SA/DX5 and HCT15/CL02). Briefly: Multidrug resistance-reversing activity, summary in words. In kind it is cell-based, Human. Here is the method:
The cyclic pentadepsipeptides of Chemical Formulas 1 and 2 were analyzed for MDR-reversing activity by comparing inhibitory activities against multidrug-resistant cancer cell lines (MES-SA/DX5 and HCT15/CL02) with those against non-multidrug-resistant cancer cell lines (MES-SA and HCT15). In this regard, the effects of the cyclic pentadepsipeptides of Chemical Formulas 1 and 2 on paclitaxel's cytotoxicity against MDR tumor cells were measured (Table 6). […].
Therefore, the N-methyl group in the cyclic pentadepsipeptide may be a factor crucial for the expression of the MDR reversal activity. […]

Series [9] relates to Escherichia coli ATCC 8739. Kind of series: Anti-bacterial activity, paper disc clear zone. In kind it is cell-based. Particulars: 0.1, 0.5, 1 and 2 mM on paper disc; 37° C., 24 hr. On the procedure:
(§5) Assays for antibacterial activity were performed with 3 Gram-positive (Listeria monocytogenes ATCC 14028, Staphylococcus aureus ATCC 35556 and Bacillus cereus ATCC 13061) and 3 Gram-negative bacteria (Escherichia coli ATCC 8739, Pseudomonas aeruginosa ATCC 9026 and Salmonella typhimurium ATCC 14028). Each of the compounds of Chemical Formulas 1 and 2 was dissolved in different concentrations (0.1, 0.5, 1, and 2 mM) in dimethyl sulfoxide (DMSO). The solutions were applied to a sterile paper disc (5 mm diameter), followed by evaporating the DMSO solvent. Bacteria was inoculated at a density of 1×10^7 CFU/ml on Tryptic soy agar (TSA) and then, the paper disc was placed on the bacteria-inoculated agars. After incubation at 37° C. for 24 hr, the clear zone around each disc was observed and its diameter was measured.

For series [10], the system named is Pseudomonas aeruginosa ATCC 9026. Briefly: Anti-bacterial activity, paper disc clear zone. In kind it is cell-based. The conditions noted are these: 0.1, 0.5, 1 and 2 mM on paper disc; 37° C., 24 hr. Here is the method:
as §5

In series [11] the test system is Staphylococcus aureus ATCC 35556. Briefly: Anti-bacterial activity, paper disc clear zone. The series is classed as cell-based. Particulars: 0.1, 0.5, 1 and 2 mM on paper disc; 37° C., 24 hr. On the procedure:
as §5

Series [12] has as its system Bacillus cereus ATCC 13061. Kind of series: Anti-bacterial activity, paper disc clear zone. In kind it is cell-based. Particulars: 0.1, 0.5, 1 and 2 mM on paper disc; 37° C., 24 hr. On the procedure: as §5
The test system of series [13] is Listeria monocytogenes ATCC 14028. Kind of series: Anti-bacterial activity, paper disc clear zone. In kind it is cell-based. The conditions noted are these: 0.1, 0.5, 1 and 2 mM on paper disc; 37° C., 24 hr. Here is the method: as §5
In series [14] the test system is Salmonella typhimurium ATCC 14028. Kind of series: Anti-bacterial activity, paper disc clear zone. Particulars: 0.1, 0.5, 1 and 2 mM on paper disc; 37° C., 24 hr. The series is classed as cell-based. Here is the method:
as §5

Setting [15] is: Homo sapiens, MES-SA/Dx5, read-out: EC50 (concentration inhibiting cell growth in vitro by 50%).
Where [16] appears, read: Homo sapiens, HCT-15, read-out: EC50 (concentration inhibiting cell growth in vitro by 50%).
The mark [17] stands for this setting: Homo sapiens, SK-OV-3, read-out: EC50 (concentration inhibiting cell growth in vitro by 50%).
The mark [18] stands for this setting: Homo sapiens, SK-MEL-2, read-out: EC50 (concentration inhibiting cell growth in vitro by 50%).
[19] abbreviates: Homo sapiens, A549, read-out: EC50 (concentration inhibiting cell growth in vitro by 50%).
The mark [20] stands for this setting: read-out: EC50 (concentration inhibiting cell growth in vitro by 50%), MES-SA/DX5.
The mark [21] stands for this setting: read-out: EC50 (concentration inhibiting cell growth in vitro by 50%), HCT15.
[22] abbreviates: read-out: EC50 (concentration inhibiting cell growth in vitro by 50%), SK-OV-3.
[23] abbreviates: read-out: EC50 (concentration inhibiting cell growth in vitro by 50%), HCT15/CL02.
Setting [24] is: read-out: EC50 (concentration inhibiting cell growth in vitro by 50%), SK-MEL-2.
The mark [25] stands for this setting: read-out: EC50 (concentration inhibiting cell growth in vitro by 50%), A549.

Turning to `CC(C)CC1OC(=O)[C@H](CC(C)C)NC(=O)[C@H](Cc2ccccc2)NC(=O)[C@H](C(C)C)NC(=O)[C@H](CC(C)C)NC1=O` (stereo partly shown) [Com. 1, neo-sansalvamide] (cyclo(FL[ξLac(3-iPr)]LV)), the “Inhibitory activity on mycelial growth” value in the series with Aspergillus oryzae is “No inhibitory activities were detected”; in the series on Fusarium oxysporum (1 mM, 25° C., 48 hr), “No inhibitory activities were detected”; with Mucor rouxii (1 mM, 25° C., 48 hr), “No inhibitory activities were detected”; in the series with Penicillium citrinum, “No inhibitory activities were detected”. Also, the “Antifungal test, overall result” value with Fusarium oxysporum was “inhibitory against Mucor rouxii, and Fusarium oxysporum, weakly”; with Mucor rouxii it was “inhibitory against Mucor rouxii, and Fusarium oxysporum, weakly”. Moreover, the “Clear zone / inhibitory effect on mycelium” value in the series with Fusarium oxysporum (10 mM, 25° C., 48 hr) is “did not produce a clear zone”. For the same molecule, the Clear zone entry with Mucor rouxii (10 mM, 25° C., 48 hr) was “no clear zones were observed”. Besides, in the series with Mucor rouxii (10 mM, 25° C., 48 hr), the “Hyphal growth near the paper disc” value was “hyphal growth of Mucor rouxii was reduced”. Moreover, the EC50 in series [1] (setting [15]) worked out at 19400 ± 1100 nM; in series [2] (setting [16]), 9950 ± 1000 nM; in series [3] (setting [17]), 10400 ± 640 nM; in series [4] (setting [16]), 22100 ± 2450 nM; in [5] (setting [18]), 14000 ± 1320 nM; in series [6] (Homo sapiens), 11800 ± 130 nM. Moreover, the EC50 in series [7] (setting [19]) worked out at 11700 ± 550 nM. Moreover, the “Effect on the cytotoxicity of paclitaxel against MDR cell lines” value in series [8] is reported as “increased the cytotoxicity of paclitaxel against MDR cell lines, but only slightly”. The “Inhibitory activity (clear zone around disc)” value in [9], in series [10], in [11], in [12], in series [13] and in [14] was “Neither the compound of Chemical Formula 1 nor Chemical Formula 2 showed inhibitory activity” in each case.
For `COc1cccc2c1C(=O)c1c(O)c3c(c(O)c1C2=O)C[C@@](O)(C(=O)CO)C[C@@H]3O[C@H]1C[C@H](N)[C@H](O)[C@H](C)O1` [Doxorubicin, doxorubicin], the EC50 in [1] (setting [15]) is 1030 ± 310 nM; in series [2] (Homo sapiens, HCT-15, read-out: EC50 (concentration inhibiting cell growth in vitro by 50%), HCT15) it was 10 ± 1 nM; in [3] (setting [17]), 60 ± 10 nM; in series [4] (Homo sapiens, HCT-15, read-out: EC50 (concentration inhibiting cell growth in vitro by 50%), HCT15/CL02) it was 4480 ± 2150 nM; in series [5] (setting [18]) it was 40 ± 10 nM; in series [6] (Homo sapiens) it was 10 ± 0.1 nM. In addition, the EC50 in series [7] (setting [19]) worked out at 30 ± 10 nM.
In the case of `CC[C@H](C)[C@H]1OC(=O)[C@H](C(C)C)N(C)C(=O)[C@@H](C(C)C)OC(=O)[C@H](C(C)C)N(C)C(=O)[C@@H](C(C)C)OC(=O)[C@H](C(C)C)N(C)C1=O` [EN H, enniatin H], the EC50 in [1] (setting [20]) stood at 14900 ± 590 nM; in series [2] (setting [21]) it was 16700 ± 960 nM; in [3] (setting [22]) it was 1710 ± 30 nM; in series [4] (setting [23]), 17700 ± 490 nM; in series [5] (setting [24]), 1770 ± 30 nM; in series [6], 12900 ± 230 nM. In addition, in [7] (setting [25]), the EC50 was determined as 1840 ± 110 nM.
As for `CC[C@H](C)[C@H]1OC(=O)[C@H](C(C)C)N(C)C(=O)[C@@H](C(C)C)OC(=O)[C@H](C(C)C)N(C)C(=O)[C@@H]([C@@H](C)CC)OC(=O)[C@H](C(C)C)N(C)C1=O` [EN I, enniatin I], the EC50 is 4900 ± 270 nM in [1] (setting [20]); 5560 ± 220 nM in [2] (setting [21]); 490 ± 30 nM in [3] (setting [22]); 5880 ± 210 nM in series [4] (setting [23]); 530 ± 60 nM in [5] (setting [24]); 3940 ± 30 nM in series [6]. Moreover, the EC50 in [7] (setting [25]) stood at 500 ± 40 nM.
With `CCC(C)C[C@H]1OC(=O)[C@H](C(C)C)N(C)C(=O)[C@@H](CC(C)C)OC(=O)[C@H](C(C)C)N(C)C(=O)[C@@H](C(C)C)OC(=O)[C@H](C(C)C)N(C)C1=O` (stereo partly shown) [EN MK1688, Enniatin MK1688], the EC50 was found to be 13600 ± 790 nM in series [1] (setting [20]); 14000 ± 540 nM in [2] (setting [21]); 460 ± 30 nM in series [3] (setting [22]); 16400 ± 840 nM in series [4] (setting [23]); 630 ± 10 nM in series [5] (setting [24]); 13600 ± 1050 nM in series [6]. Besides, in series [7] (setting [25]), the EC50 was determined as 450 ± 40 nM.
In the case of beauvericin, the EC50 came to 1340 ± 30 nM in series [1] (setting [20]); 1530 ± 90 nM in [2] (setting [21]); 1390 ± 90 nM in series [3] (setting [22]); 1660 ± 80 nM in [4] (setting [23]); 1470 ± 90 nM in [5] (setting [24]); 1290 ± 20 nM in [6]. In [7] (setting [25]), the EC50 was found to be 1430 ± 160 nM.
